Assay results as given in patent US8440830B2, “Tetrahydro-fused pyridines as histone deacetylase inhibitors” (4SC AG, priority 2007, dated 2013).
Where two headings read alike, the source gives them in different places.

Experiments:
[1] = tested on: histone H3 hyperacetylation in HeLa cervical carcinoma cells; assay: Cellular histone H3 hyperacetylation assay; assay type: cell-based; settings: Homo sapiens, 24 h treatment
Source text: To assess the cellular efficacy of a histone deacetylase inhibitor in vitro, an assay is set up in black clear-bottom 96-well plates and optimized for use on the Cellomics “ArrayScan II” platform for a quantitative calculation of histone acetylation. The protocol uses a polyclonal rabbit antibody, specifically binding to acetylated lysine 1-20 (including K 9 and K14) of human histone H3 on fixed cells with an Alexa Fluor 488 labeled goat anti rabbit-IgG used for counterstaining 5×10^3 HeLa cervical carcinoma cells/well (ATCC CCL-2) in 200 μl Dulbecco's modified Eagle's medium (DMEM) containing 10% fetal calf serum are seeded at day 1 in Packard view plates and incubated for 24 h under standard cell culture conditions. On day 2, 1 μl test compound (200× final concentration) is added and incubation continued for further 24 h. On day 3, the culture medium is discarded and attached cells fixed for 15 min at room temperature by addition of 100 μl fixation buffer (3.7% v:v formaldehyde in phosphate buffered saline/PBS). After discarding the fixation buffer and one wash with blocking solution (1% BSA, 0.3% Tween 20 in PBS), cells are permeabilized at room temperature by addition of 100 μl /well permeabilization buffer (30.8 mM NaCl, 0.54 mM Na2HPO4, 0.31 mM KH2PO4, 0.1% v:v Triton X-100) for 15 min at room temperature. After discarding the permeabilization buffer and washing twice with 100 μl/well blocking solution at room temperature, the 1st antibody (anti-K1-20 histone H3 antibody, Calbiochem No. 382158) in blocking solution (50 μl/well) is added. After incubation for 1 h at room temperature, the wells are washed twice at room temperature with 100 μl/well blocking solution before addition of the 2nd antibody (goat-anti-rabbit Alexa Fluor 488; MoBiTec No. A -11008) in blocking solution (50 μl well). After further incubation for 1 h at room temperature, wells are washed twice with 100 μl/well blocking solution at room temperature. Finally, 100 μl/well PBS are added and image analysis performed on the Cellomics “ArrayScan II” platform. For EC50 determination, the percentage of positive cells showing nuclear fluorescence is determined and EC50 calculation done from concentration-effect curves by means of non-linear regression. For calibration, a positive (reference HDAC inhibitors like SAHA or NVP LBH-589) and a negative control were included.

[2] = tested on: A549 NSCLC cells; assay: Cellular cytotoxicity assay (Alamar Blue), A549; assay type: cell-based; settings: Homo sapiens, 72 h, upper end given as ≧100, read-out: IC50 (μM), cytotoxicity towards A549 NSCLC cells
Outline: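 Resazurin-to-resorufin fluorescence (ex 544, em 590 nm, after 4 h) gave viability as % of untreated cells following 72 h compound exposure at 37 °C. Compounds were added in semi-logarithmic dilutions 24 h post-seeding, quadruplicate wells; IC50 fitted by non-linear regression of concentration-effect curves.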

[3] = read-out: EC50, induction of histone H3 hyperacetylation
[4] = read-out: −lg EC50, induction of histone H3 hyperacetylation

Row | EC50 [1, 3] | EC50 [1, 4] | Compound | IC50 [2]
1 | 150 to 15000 nM | 251 to 15800 nM | COc1ccc(OCC(=O)N2CCc3nc(C(=O)Nc4ccccc4N)sc3C2)cc1 [Example 174, N-(2-aminophenyl)-5-[(4-methoxyphenoxy)acetyl]-4,5,6,7-tetrahydro[1,3]-thiazolo[5,4-c]pyridine-2-carboxamide] | ≥ 0.2 µM
2 | 150 to 15000 nM | 251 to 15800 nM | Nc1ccccc1NC(=O)c1nc2c(s1)CN(S(=O)(=O)c1ccc(-c3ccccc3)cc1)CC2 [Example 152, N-(2-aminophenyl)-5-(biphenyl-4-ylsulfonyl)-4,5,6,7-tetrahydro[1,3]thiazolo[5,4-c]pyridine-2-carboxamide] | ≥ 0.2 µM
3 | 150 to 15000 nM | 251 to 15800 nM | COc1ccc(NC(=NC#N)N2CCc3nc(C(=O)Nc4ccccc4N)sc3C2)cc1 [Example 117, N-(2-aminophenyl)-5-{(cyanoimino)[(4-methoxyphenyl)amino]methyl}-4,5,6,7-tetrahydro[1,3]thiazolo[5,4-c]pyridine-2-carboxamide] | ≥ 0.2 µM
4 | 150 to 15000 nM | 251 to 15800 nM | Nc1ccccc1NC(=O)c1nc2c(s1)CN(C(=O)NCc1ccccc1)CC2 [Example 4, N^2-(2-aminophenyl)-N5-benzyl-6,7-dihydro[1,3]thiazolo[5,4-c]pyridine-2,5(4H)-dicarboxamide] | ≥ 0.2 µM
5 | 150 to 15000 nM | 251 to 15800 nM | Cc1ccc(S(=O)(=O)Nc2ccc(N3CCc4nc(C(=O)Nc5ccccc5N)sc4C3)nc2)cc1 [Example 197, N-(2-aminophenyl)-5-(5-{[(4-methylphenyl)sulfonyl]amino}pyridin-2-yl)-4,5,6,7-tetrahydro[1,3]thiazolo[5,4-c]pyridine-2-carboxamide] | ≥ 0.2 µM
6 | 150 to 15000 nM | 251 to 15800 nM | Nc1ccccc1NC(=O)c1nc2c(s1)CN(C(=O)C=Cc1ccc3c(c1)OCO3)CC2 [Example 190, N-(2-aminophenyl)-5-[3-(1,3-benzodioxol-5-yl)prop-2-enoyl]-4,5,6,7-tetrahydro[1,3]thiazolo[5,4-c]pyridine-2-carboxamide] | ≥ 0.2 µM
7 | 150 to 15000 nM | 251 to 15800 nM | COCCNC(=O)N1CCc2nc(C(=O)Nc3ccccc3N)sc2C1 [Example 16, N^2-(2-aminophenyl)-N^5-(2-methoxyethyl)-6,7-dihydro[1,3]thiazolo[5,4-c]-pyridine-2,5(4H)-dicarboxamide] | ≥ 0.2 µM
8 | 150 to 15000 nM | 251 to 15800 nM | N#CN=C(Nc1ccccc1)N1CCc2nc(C(=O)Nc3ccccc3N)sc2C1 [Example 116, N-(2-aminophenyl)-5-[anilino(cyanoimino)methyl]-4,5,6,7-tetrahydro[1,3]thiazolo[5,4-c]pyridine-2-carboxamide] | ≥ 0.2 µM
9 | 150 to 15000 nM | 251 to 15800 nM | Nc1ccccc1NC(=O)c1nc2c(s1)CN(c1nccc(-c3cccnc3)n1)CC2 [Example 193, N-(2-aminophenyl)-5-(4-pyridin-3-ylpyrimidin-2-yl)-4,5,6,7-tetrahydro[1,3]thiazolo[5,4-c]pyridine-2-carboxamide] | ≥ 0.2 µM
10 | 150 to 15000 nM | 251 to 15800 nM | CN(C)c1cccc(NC(=O)N2CCc3nc(C(=O)Nc4ccccc4N)sc3C2)c1 [Example 18, N^2-(2-aminophenyl)-N^5-[3-(dimethylantino)phenyl]-6,7-dihydro[1,3]thiazolo[5,4-c]pyridine-2,5(4H)-dicarboxamide] | ≥ 0.2 µM
11 | 150 to 15000 nM | 251 to 15800 nM | COc1cccc(S(=O)(=O)N2CCc3nc(C(=O)Nc4ccccc4N)sc3C2)c1 [Example 160, N-(2-aminophenyl)-5-[(3-methoxyphenyl)sulfonyl]-4,5,6,7-tetrahydro[1,3]thiazolo[5,4-c]pyridine-2-carboxamide] | ≥ 0.2 µM
12 | 150 to 15000 nM | 251 to 15800 nM | COc1ccc(NC(=NC#N)N2CCc3nc(C(=O)Nc4ccccc4N)sc3C2)cc1OC [Example 118, N-(2-aminophenyl)-5-{(cyanoimino)[(3,4-dimethoxyphenyl)amino]methyl}-4,5,6,7-tetrahydro[1,3]thiazolo[5,4-c]pyridine-2-carboxamide] | ≥ 0.2 µM
13 | 150 to 15000 nM | 251 to 15800 nM | Nc1ccccc1NC(=O)c1nc2c(s1)CN(c1ncccn1)CC2 [Example 192, N-(2-aminophenyl)-5-pyrimidin-2-yl-4,5,6,7-tetrahydro[1,3]thiazolo[5,4-c]pyridine-2-carboxamide] | ≥ 0.2 µM
14 | 150 to 15000 nM | 251 to 15800 nM | CN1CCN(c2ccc(NC(=O)N3CCc4nc(C(=O)Nc5ccccc5N)sc4C3)cn2)CC1 [Example 37, N^2-(2-aminophenyl)-N^5-[6-(4-methylpiperazin-1-yl)pyridin-3-yl]-6,7-dihydro[1,3]thiazolo[5,4-c]pyridine-2,5(4H)-dicarboxamide] | ≥ 0.2 µM
15 | – | – | COc1ccc(N=C(NC#N)N2CCc3nc(C(=O)Nc4cc(C(C)C)ccc4N)sc3C2)cc1 [Example 125, N-(2-amino-5-isopropylphenyl)-5-{(cyanoamino)[(4-methoxyphenyl)-imino]methyl}-4,5,6,7-tetrahydro[1,3]thiazolo[5,4-c]pyridine-2-carboxamide] | ≥ 0.2 µM
16 | – | – | Cc1ccc(NC(=O)C(=O)N2CCc3nc(C(=O)Nc4ccccc4N)sc3C2)cc1 [Example 75, N-(2-aminophenyl)-5-{[(4-methylphenyl)amino](oxo)acetyl}-4,5,6,7-tetrahydro[1,3]thiazolo[5,4-c]pyridine-2-carboxamide] | ≥ 0.2 µM
17 | – | – | Nc1ccccc1NC(=O)c1nc2c(s1)CN(S(=O)(=O)c1cccc(F)c1)CC2 [Example 163, N-(2-aminophenyl)-5-[(3-fluorophenyl)sulfonyl]-4,5,6,7-tetrahydro[1,3]-thiazolo[5,4-c]pyridine-2-carboxamide] | ≥ 0.2 µM
18 | – | – | Nc1ccccc1NC(=O)c1nc2c(s1)CN(C(=O)Nc1cccc3cnccc13)CC2 [Example 62, N^2-(2-aminophenyl)-N^5-isoquinolin-5-yl-6,7-dihydro[1,3]thiazolo[5,4-c]pyridine-2,5(4H)-dicarboxamide] | ≥ 0.2 µM
19 | – | – | COc1ccc(NC(=S)N2CCc3nc(C(=O)Nc4cc(C(C)C)ccc4N)sc3C2)cc1 [Example 110, N-(2-amino-5-isopropylphenyl)-5-{[(4-methoxyphenyl)amino]carbonothioyl}-4,5,6,7-tetrahydro[1,3]thiazolo[5,4-c]pyridine-2-carboxamide] | ≥ 0.2 µM
20 | – | – | COc1ccc(N)c(NC(=O)c2nc3c(s2)CN(C(=S)Nc2ccccc2)CC3)c1 [Example 102, N-(2-amino-5-methoxyphenyl)-5-(anilinocarbonothioyl)-4,5,6,7-tetrahydro[1,3]thiazolo[5,4-c]pyridine-2-carboxamide] | ≥ 0.2 µM
21 | – | – | Nc1ccccc1NC(=O)c1nc2c(s1)CN(S(=O)(=O)c1ccc(OC(F)(F)F)cc1)CC2 [Example 168, N-(2-aminophenyl)-5-{[4-(trifluoromethoxy)phenyl]sulfonyl}-4,5,6,7-tetrahydro[1,3]thiazolo[5,4-c]pyridine-2-carboxamide] | ≥ 0.2 µM
22 | – | – | COc1ccc(NC(=S)N2CCc3nc(C(=O)Nc4cc(OC)ccc4N)sc3C2)cc1 [Example 106, N-(2-amino-5-methoxyphenyl)-5-{[(4-methoxyphenyl)amino]carbonothioyl}-4,5,6,7-tetrahydro[1,3]thiazolo[5,4-c]pyridine-2-carboxamide] | ≥ 0.2 µM
23 | – | – | CCCCNC(=O)C(=O)N1CCc2nc(C(=O)Nc3cc(OC)ccc3N)sc2C1 [Example 83, N-(2-amino-5-methoxyphenyl)-5-[(butylamino)(oxo)acetyl]-4,5,6,7-tetrahydro[1,3]thiazolo[5,4-c]pyridine-2-carboxamide] | ≥ 0.2 µM
24 | – | – | COc1cccc(OCC(=O)N2CCc3nc(C(=O)Nc4ccccc4N)sc3C2)c1 [Example 179, N-(2-aminophenyl)-5-[(3-methoxyphenoxy)acetyl]-4,5,6,7-tetrahydro[1,3]-thiazolo[5,4-c]pyridine-2-carboxamide] | ≥ 0.2 µM

Row | Compound | EC50 [1, 3] | EC50 [1, 4] | IC50 [2]
25 | Nc1ccccc1NC(=O)c1nc2c(s1)CN(C(=O)Nc1cccnc1)CC2 [Example 39, N^2-(2-aminophenyl)-N^5-pyridin-3-yl-6,7-dihydro[1,3]thiazolo[5,4-c]pyridine-2,5(4H)-dicarboxamide] | 150 to 15000 nM | 251 to 15800 nM | ≥ 0.2 µM
